The values below come from patent US20160038446A1, “METHOD FOR IMPEDING SKIN INFLAMMATORY RESPONSE TO AN ENERGY INJURY” (priority 2014, published 2016).

For data set [1], the system named is skin inflammatory response to an energy injury. In words: Effectiveness of the burn treatment as a function of pH and concentration of the lactic acid.
Data set [2] has the same test system. In words: Topical application to heat-caused first or second degree burns (FIG. 1, burn cases in general). It counts as in vivo, human. From the text:
An energy injury is a sunburn, heat burn, or other radiation energy burn including thermal heat energy burns. […] As noted by the prior art discussed above, L-lactic acid was originally intended to facilitate reversing the signs/appearance of aging in cosmetic surgery patients by loosening and subsequent exfoliation of outer layer dead skin cells using L-Lactic Acid as the active ingredient. L-Lactic Acid is the only stereoisomer configuration of lactic acid that is active in cellular metabolism. In its original application, the L-Lactic Acid formulation very effectively results in increased epidermal cell turnover and stimulation of new collagen deposition in the deeper dermal skin layer of uninjured skin. However, the prior art teaches that acid irritates and burns the skin and teaches that concentrated acid should never be applied to an injury or burn area. […] In this manner, the action of 15% or less L-Lactic Acid with pH of less than 3.0 applied topically to an acute severe second degree burn appears to safely halt and then reverse the dermal inflammatory response cascade of events. Thus, capillary swelling decreases, leaked vascular fluid returns into the capillaries and/or lymph channels, and redness disappears as a result of fewer red blood cells in the area.
The preferred and proven application of the product should occur as soon as possible after the energy injury during the inflammatory response. However, the application is effective at any time during the skin inflammatory response. This initial application, if possible, should be within one hour for ANY first or second degree burn including a deep second degree burn such as a sunburn, touching a 400 degree oven pan. radiation therapy, or laser resurfacing treatment. This topical application has a phenomenal effect on both the visible appearance and experienced physical symptoms of the burn. […] When looking at FIGS. 1 and 2 one may see that this initial application 100 time affects how much of the untreated skin inflammatory response 60 and damage that must be overcome with the faster the application 100, the better the treated effect 150. […] The patient schedule, effectiveness of the application 100, and the increased concentration resulting in an increased patient's skin irritation become an issue with shortening the intervals for reapplication.

Take `C[C@H](O)C(=O)O` [L-Lactic Acid, L-lactic acid]: the “effectiveness for the treatment” value in data set [1] (2.5 pH, 2.4 pH) is given as “increased effectiveness”; in data set [1] (2.8 pH) it was “further increasing effectiveness”; in data set [1] (3.0 pH) it was “increasing effectiveness compared to the 3.5 pH”; in data set [1] (3.5 pH) it was “increasing effectiveness over the 4.0 pH”; in data set [1] (4.0 pH) it was “slightly effective”; in data set [1] (above a 4.0 pH) it was “ineffective”. The “skin effect of high concentrations” value in data set [1] (concentrations over 30%) is given as “incite exfoliation”. For the same compound, in data set [2] (FIG. 1, applied within four hours of the initial burn), the “skin inflammatory response compared against the untreated norm” value is “immediate and significant impediment to the skin inflammatory response”. In addition, in data set [2] (FIG. 1 example, applied within four hours of the initial burn), the “exfoliation or blister occurrence” value was “no apparent exfoliation or blister occurrence”. The “blister formation after treatment” value in data set [2] (any burn cases) is “no blister formation has occurred”. Also, the “applications at different times after the energy injury” value in data set [2] (applied 1 hour, 2 hours, 4 hours, and 6 hours after the energy injury) is recorded as “successfully tested”.
